Results reported in patent publication EP0863702B1, “FUNGICIDAL MIXTURE” (BASF AKTIENGESELLSCHAFT, priority 1995, dated 1997).

What was measured:
[1] = tested on: Botrytis cinerea; assay: Efficacy against Botrytis cinerea on slices of green paprika fruit; format: in vivo; conditions: single active, Paprikaschoten-Scheiben, 4 Tage, 18°C
Experimental: Scheiben von grünen Paprikaschoten wurden mit wäßriger Wirkstoffaufbereitung, die 80 % Wirkstoff und 20 % Emulgiermittel in der Trockensubstanz enthielt, tropfnaß besprüht. 2 Stunden nach dem Antrocknen des Spritzbelages wurden die Fruchtscheiben mit einer Sporensuspension von Botrytis cinerea, die 1,7 x 10^6 Sporen pro ml einer 2 %igen Biomalzlösung enthielt, inokuliert. Die inokulierten Fruchtscheiben wurden anschließend in feuchten Kammern bei 18°C für 4 Tage aufgestellt. Dann erfolgte visuell die Auswertung der Botrytis-Entwicklung auf den befallenen Fruchtscheiben.
(§1) Die visuell ermittelten Werte für den Prozentanteil befallener Blattfläche wurden in Wirkungsgrade als % der unbehandelten Kontrolle umgerechnet. Wirkungsgrad 0 ist gleicher Befall wie in der unbehandelten Kontrolle, Wirkungsgrad 100 ist 0 % Befall. Die zu erwartenden Wirkungsgrade für Wirkstoffkombinationen wurden nach der Colby-Formel ermittelt (S. R. Colby "Calculating synergistic and antagonistic responses of herbicide combinations", Weeds 15, Seiten 20 bis 22 (1967)) und mit den beobachteten Wirkungsgraden verglichen.

[2] = tested on: Botrytis cinerea; assay: Efficacy against Botrytis cinerea on paprika seedlings (protective spray); format: in vivo; conditions: single active, Paprikasämlinge, 5 Tage, 22 bis 24°C
Experimental: Paprikasämlinge der Sorte "Neusiedler Ideal Elite" wurden, nachdem sich 4 bis 5 Blätter gut entwickelt hatten, mit wäßrigen Suspensionen, die 80 % Wirkstoff und 20 % Emulgiermittel in der Trockensubstanz enthielten, tropfnaß gespritzt. Nach dem Antrocknen des Spritzbelages wurden die Pflanzen mit einer Konidienaufschwemmung des Pilzes Botrytis cinerea besprüht und bei 22 bis 24°C in eine Kammer mit hoher Luftfeuchtigkeit gestellt. Nach 5 Tagen hatte sich die Krankheit auf den unbehandelten Kontrollpflanzen so stark entwickelt, daß die entstandenen Blattnekrosen den überwiegenden Teil der Blätter bedeckten.
as §1

| Compound | Wirkungsgrad ([1]; 100 ppm in der Spritzbrühe) | Wirkungsgrad ([2]; 25 ppm in der Spritzbrühe) | Wirkungsgrad ([2]; 100 ppm in der Spritzbrühe) | Wirkungsgrad ([1]; 25 ppm in der Spritzbrühe) |
| --- | --- | --- | --- | --- |
| CC(C)(CCl)C(=O)Nc1ccc(O)c(Cl)c1Cl [(A)] | 20 % der unbehandelten Kontrolle | 40 % der unbehandelten Kontrolle | 84 % der unbehandelten Kontrolle |  |
| CC1(C(=O)Nc2ccc(O)c(Cl)c2Cl)CC2CCC1C2 (centres unmarked) [(B)] | 25 % der unbehandelten Kontrolle | 65 % der unbehandelten Kontrolle | 80 % der unbehandelten Kontrolle | 10 % der unbehandelten Kontrolle |
| CC1(C(=O)Nc2ccc(O)c(Cl)c2Cl)CCCCC1 [(C)] | 25 % der unbehandelten Kontrolle | 35 % der unbehandelten Kontrolle | 70 % der unbehandelten Kontrolle | 30 % der unbehandelten Kontrolle |
